Measured values reported in patent publication US20220274983A1, “JAK KINASE INHIBITOR AND USE THEREOF” (JIANGSU CAREPHAR PHARMACEUTICAL CO., LTD., priority 2019, published 2022).

Assays:
JAK1 = JAK1 (Homo sapiens, UniProt P23458); test: JAK kinase inhibitory activity, HTRF biochemical assay
Protocol: (§1) The compounds of the above embodiments were applied to the detection and screening of JAK kinase inhibitory activity.
(§2) A corresponding volume of DMSO was added to each well of a first 96-well plate. 20-30 μL of 100-200 μM stock solution of different test compounds were added to each well. The mixture was shaken and mixed for 3 min. All of the compounds were subjected to 3× serial dilution. 60-80 μL Kinase buffer was added to each well of a second 96-well plate, and 1-2 μL of the solution taken from each well of the first 96-well plate was added to the corresponding well of the second 96-well plate. The mixture was shaken and mixed for 3 min. 5 μL of compound dilution taken from each well of the second compound dilution plate was transferred to the corresponding well of a 384-well test plate. 1-2 μL TK Substrate-biotin was added to each well of the test plate. 1-2 μL of enzyme mixture was added to each well. At the same time, a blank well without enzyme was set. 1-2 μL of ATP solution was added to each well, the plate was sealed and reacted at room temperature. The reaction time was as follows: JAK1: 2 h, JAK2: 30 min, JAK3: 30 min, and TYK2: 50 min. 3-5 μL of Streptavidin-XL665 and 3-5 μL of TK Antibody-cryptate were added to each well, the plate was sealed and allowed to stand at room temperature for 30 min to complete the reaction.
(§3) The percentage of inhibition was calculated based on the following formula:
(§4) Inhibition %=[(Ratiomax−Ratiocompound)/(Ratiomax−Ratiomin)]×100%
(§5) Ratiocompound is the HTRF ratio at a given compound concentration, Ratiomin is the HTRF ratio added to the blank well, and Ratiomax is the HTRF ratio without adding the compound. GraphPad Prism 5.0 software was used to plot a sigmoid dose-inhibition rate curve with a non-linear regression model and calculate the IC50 value.

JAK2 = JAK2 (Homo sapiens, UniProt O60674); test: as above
Protocol: as §1, §2, §3, §4, §5

THP1 cells = test: Proliferation inhibition based on THP1 cells (IL-4 stimulation, CTG); type: cell-based; conditions: Homo sapiens, THP-1, read-out: IC50 (uM), proliferation inhibitory activity on THP1 cells
Protocol: (§6) 1. Cell plating: cultured cells were collected and counted for viable cells with Vi-Cell XR cell counter. The cell suspension was adjusted to an appropriate concentration with the medium and then added to a 96-well cell culture plate. 80 μL of the cell suspension was added to each well of the 96-well cell culture plate. The cell plating density depended on the growth rate of the cells. The cells were cultured in corresponding incubators.
(§7) 2. Drug treatment and IL-4 stimulation: firstly, a series of test compound concentration (work solution-1) was prepared using DMSO with 3× gradient dilution, and then it was subjected to fold dilution with RPMI1640+10% FBS to obtain a work solution-2; Cisplatin's work solution-2 was prepared with RPMI1640+10% FBS, and then 1-10 μL solution taken from the work solution-2 was added to the prepared cell wells containing medium. The cells were cultured in the corresponding incubators. After incubation, 1-10 μL of IL-4 medium was added to each well and continued to culture. An appropriate CTG solution was added to each well.
Cell Survial Rate Calculation
(§8) T is the luminescence reading of a drug treatment group, and C is the average luminescence reading of a solvent control group.

BaF3 cells = test: Proliferation inhibition based on BaF3 cells (IL-3 medium, CTG); type: cell-based; conditions: Mus musculus, medium containing IL-3, read-out: IC50 (uM), proliferation inhibitory activity on BaF3 cells
Protocol: 1. Cell plating: cultured cells were collected with RPMI1640+10% FBS (containing IL-3) medium and counted for viable cells with Vi-Cell XR cell counter. The cell suspension was adjusted to an appropriate concentration with RPMI1640+10% FBS (containing IL-3) medium and then added to a 96-well cell culture plate. A certain amount of cell suspension was added to each well of the 96-well cell culture plate. The cells were cultured in corresponding incubators.
as §7, with “treatment:” for “treatment and IL-4 stimulation: firstly,”, “FBS (containing IL-3)” for “FBS”, “FBS (containing IL-3),” for “FBS,”, “incubators.” for “incubators. After incubation, 1-10 μL of IL-4 medium was added to each well and continued to culture.”
(§9) Cell Survival Rate Calculation
as §8

Hela cells = test: Proliferation inhibition based on Hela cells (OSM stimulation, CTG); type: cell-based; conditions: Homo sapiens, OSM stimulation, read-out: IC50 (uM), proliferation inhibitory activity on Hela cells
Protocol: as §6, with “50 μL-100” for “80”
2. Drug Treatment and OSM Stimulation
as §7, with “Firstly,” for “2. Drug treatment and IL-4 stimulation: firstly,”, “medium.” for “medium. The cells were cultured in the corresponding incubators.”, “OSM” for “IL-4”, “well. The mixture was shaken and mixed for 1-5 min and then a luminescence signal was determined with an Envision2104 plate reader.” for “well.”
as §9, §8

rat CIA model [1] = test: Hindfoot foot volume in rat CIA model; type: in vivo, Lewis rats; conditions: CIA rats, hindfoot, 2 mg/kg oral gavage once daily for 2 w
Protocol: (§10) Lewis rats (female, 10-12 weeks old) were obtained from Beijing Vital River Laboratory Animal Technology Co., Ltd. The rats were on a light and dark alternation for 12 h, and the environment was kept at a temperature of 23±2° C. and a humidity of 40-70%.
(§11) Type II collagen solution (2 mg/mL) was prepared with 0.05 M acetic acid solution to allow to be fully dissolved, and placed overnight in the dark at 4° C. During the test, 2 mg/mL type II collagen (C II) solution and 4 mg/mL complete Freund's adjuvant (CFA) solution were mixed in equal volumes under ice bath conditions to fully emulsify. On day 0, an emulsion prepared by mixing equal volumes of C II (2 mg/mL) and CFA (4 mg/mL) was injected intracutaneously into the base of the tail of experimental rats for primary immunization, and on day 7, secondary booster immunization was performed.
(§12) The therapeutic effect of the test compound was tested in a rat CIA model. The rats were randomly divided into groups with 8 animals in each group. All animals were immunized on day 0 and boosted on day 7.
(§13) Therefore, the differences in body weight and foot volume after the onset of arthritis compared with the negative group, respectively, can be used to evaluate the therapeutic effect in the rat model. The experimental data were expressed as Mean±SEM; the data between the two groups was tested by unpaired t-test and p<0.05 was considered as a significant difference.

Body weight of CIA rats = conditions: 2 mg/kg oral gavage once daily for 2 w
Protocol: as §10, §11, §12, §13

rat CIA model [2] = test: Arthritis index (AI) of extremities in rat CIA model; conditions: CIA rats, 2 mg/kg oral gavage once daily for 2 w, score 0-16;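 also: rats immunized with type II collagen plus complete Freund's adjuvant on day 0, boosted day 7, groups of 8, each paw graded 0-4 for swelling or redness, higher means worse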
Protocol: as §10, §11, §12
Foot volume was scored for the swelling of four toes at the same time, the score for each foot was 0-4, and the highest score for each rat was 16. 0—no swelling, normal appearance; 1—mild swelling or redness of the ankle joint, wrist joint or finger joint; 2—moderate swelling or redness of the ankle joint, wrist joint or finger joint; 3—severe swelling or redness of the ankle joint, wrist joint or finger joint; 4—very severe swelling or redness of the ankle joint, wrist joint or finger joint.

Chain of JAK2 (O60674 whole entry, species assumed): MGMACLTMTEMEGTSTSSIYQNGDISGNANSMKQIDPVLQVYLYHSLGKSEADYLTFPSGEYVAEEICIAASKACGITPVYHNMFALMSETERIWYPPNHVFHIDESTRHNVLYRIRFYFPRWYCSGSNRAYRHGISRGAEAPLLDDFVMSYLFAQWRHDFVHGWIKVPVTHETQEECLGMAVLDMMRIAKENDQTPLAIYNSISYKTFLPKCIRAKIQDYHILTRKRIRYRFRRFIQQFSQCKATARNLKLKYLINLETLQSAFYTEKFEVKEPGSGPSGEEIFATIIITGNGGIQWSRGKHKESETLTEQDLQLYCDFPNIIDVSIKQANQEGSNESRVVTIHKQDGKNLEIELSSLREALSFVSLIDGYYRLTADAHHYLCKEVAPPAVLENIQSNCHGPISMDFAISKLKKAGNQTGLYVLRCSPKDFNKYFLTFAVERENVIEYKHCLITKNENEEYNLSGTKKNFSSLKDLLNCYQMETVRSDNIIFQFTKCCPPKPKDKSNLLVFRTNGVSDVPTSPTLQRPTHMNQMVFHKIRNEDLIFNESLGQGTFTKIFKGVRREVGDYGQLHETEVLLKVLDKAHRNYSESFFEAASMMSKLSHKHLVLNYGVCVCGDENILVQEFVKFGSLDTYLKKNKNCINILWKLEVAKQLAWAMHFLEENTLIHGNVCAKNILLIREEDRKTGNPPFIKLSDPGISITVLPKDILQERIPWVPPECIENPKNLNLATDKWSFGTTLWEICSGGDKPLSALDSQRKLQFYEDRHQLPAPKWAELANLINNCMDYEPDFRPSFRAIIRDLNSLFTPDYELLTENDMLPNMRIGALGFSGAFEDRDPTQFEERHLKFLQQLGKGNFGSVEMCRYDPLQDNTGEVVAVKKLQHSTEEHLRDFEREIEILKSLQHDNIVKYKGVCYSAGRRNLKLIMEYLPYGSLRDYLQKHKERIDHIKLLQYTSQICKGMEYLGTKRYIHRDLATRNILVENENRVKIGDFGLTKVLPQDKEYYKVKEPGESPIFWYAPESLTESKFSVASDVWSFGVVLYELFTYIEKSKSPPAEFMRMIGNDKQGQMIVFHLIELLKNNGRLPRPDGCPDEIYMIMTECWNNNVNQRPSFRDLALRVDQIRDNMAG
Chain of JAK1 (P23458 whole entry, species assumed): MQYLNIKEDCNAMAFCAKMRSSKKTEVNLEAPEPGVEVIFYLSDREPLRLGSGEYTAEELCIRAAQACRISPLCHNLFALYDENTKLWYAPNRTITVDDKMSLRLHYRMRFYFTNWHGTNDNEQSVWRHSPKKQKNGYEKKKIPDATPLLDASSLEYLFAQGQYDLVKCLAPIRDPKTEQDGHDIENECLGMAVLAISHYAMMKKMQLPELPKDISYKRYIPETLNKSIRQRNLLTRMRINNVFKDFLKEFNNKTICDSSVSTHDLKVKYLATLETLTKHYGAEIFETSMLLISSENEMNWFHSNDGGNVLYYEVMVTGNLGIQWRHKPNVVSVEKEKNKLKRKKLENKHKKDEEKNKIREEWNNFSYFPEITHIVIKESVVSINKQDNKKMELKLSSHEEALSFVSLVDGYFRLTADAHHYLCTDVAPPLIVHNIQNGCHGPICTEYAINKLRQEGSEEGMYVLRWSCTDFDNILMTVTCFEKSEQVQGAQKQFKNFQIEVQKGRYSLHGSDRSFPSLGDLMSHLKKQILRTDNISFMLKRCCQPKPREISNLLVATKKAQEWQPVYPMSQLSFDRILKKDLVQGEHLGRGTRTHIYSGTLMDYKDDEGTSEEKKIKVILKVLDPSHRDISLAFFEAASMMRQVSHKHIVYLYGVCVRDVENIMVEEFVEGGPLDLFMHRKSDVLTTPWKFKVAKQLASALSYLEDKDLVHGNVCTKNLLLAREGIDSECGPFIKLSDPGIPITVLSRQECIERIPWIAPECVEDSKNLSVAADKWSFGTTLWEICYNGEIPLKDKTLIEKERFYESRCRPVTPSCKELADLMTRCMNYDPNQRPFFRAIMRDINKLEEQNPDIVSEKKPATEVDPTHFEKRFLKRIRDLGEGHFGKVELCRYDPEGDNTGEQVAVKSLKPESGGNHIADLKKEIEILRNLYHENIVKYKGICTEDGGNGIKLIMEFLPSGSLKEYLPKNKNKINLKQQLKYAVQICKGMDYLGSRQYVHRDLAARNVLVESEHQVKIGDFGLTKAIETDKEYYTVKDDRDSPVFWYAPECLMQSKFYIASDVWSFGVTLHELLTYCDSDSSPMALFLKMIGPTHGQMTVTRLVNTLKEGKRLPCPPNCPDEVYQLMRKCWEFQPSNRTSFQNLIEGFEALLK

## Cc1cc(-c2cccc3nc(NC(=O)C4CC4)nn23)sc1CN1CCC(F)(F)CC1 [EXP-13]
JAK1
  IC50: 30 to 50 nM
JAK2
  IC50: 30 to 50 nM

## O=C(Nc1nc2cccc(-c3nnc(CN4CCS(=O)(=O)CC4)o3)n2n1)C1CC1 [EXP-15, N-[5-[5-[(1,1-dioxo-1,4-thiazin-4-)methyl]-1,3,4-oxadiazole-2-]-[1,2,4]triazolo[1,5-a]pyridine-2-]cyclopropylcarboxamide]
JAK1
  IC50: > 500 nM

## O=C(Nc1nc2cccc(-c3ccc(CN4CCC(OC(F)(F)F)CC4)s3)n2n1)[C@H]1C[C@@H]1F (relative stereo) [EXP-19]
JAK1
  IC50: > 500 nM

## O=C(NCCc1nccs1)c1ccc(-c2cccc3nc(NC(=O)C4CC4)nn23)s1 [EXP-17, 5-[2-[2-thiazole-2-ethyl]carboxamido]-thiophene-[1,2,4]triazolo[1,5-a]pyridine-2-cyclopropanecarboxamide]
JAK1
  IC50: > 500 nM

## O=C(Nc1nc2cccc(-c3ccc(CN4CCS(=O)(=O)CC4)s3)n2n1)[C@@H]1C[C@H]1C(F)(F)F [EXP-9]
JAK1
  IC50: 50 to 500 nM
JAK2
  IC50: 50 to 500 nM

## O=C(Nc1nc2cccc(-c3ccc(CN4CCS(=O)(=O)CC4)s3)n2n1)[C@H]1C[C@H]1F (relative stereo) [EXP-5, N-[5-[4-[(1,1-dioxothiomorpholine)methyl]thienyl]-[1,2,4]triazolo[1,5-a]pyridin-2-yl]-cis-2-fluoro-cyclopropanecarboxamide]
THP1 cells
  IC50: < 5 µM
BaF3 cells
  IC50: < 5 µM
Hela cells
  IC50: 5 to 30 µM
JAK1
  IC50: 50 to 500 nM
JAK2
  IC50: 50 to 500 nM

## O=C(Nc1nc2cccc(-c3ccc(CN4CCC(F)(F)CC4)s3)n2n1)[C@H]1C[C@@H]1F (relative stereo) [EXP-12, trans-N-[5-[5-[(4,4-difluoro-1-piperidinyl)methyl]-2-thienyl]-[1,2,4]triazolo[1,5-a]pyridin-2-yl]-2-fluorocyclopropanecarboxamide]
JAK1
  IC50: 50 to 500 nM

## O=C(Nc1nc2cccc(-c3ccc(CN4CCS(=O)(=O)CC4)s3)n2n1)[C@H]1C[C@H]1C(F)(F)F [EXP-8]
JAK1
  IC50: > 500 nM
JAK2
  IC50: > 500 nM

## O=C(Nc1nc2cccc(-c3cnc(CN4CCS(=O)(=O)CC4)s3)n2n1)C1CC1 [EXP-4, N-[5-[2-[(1,1-dioxo-1,4-thiazine-4-)methyl]thiazol-5-]-[1,2,4]triazolo[1,5-a]pyridine-2-]cyclopropylcarboxamide]
THP1 cells
  IC50: 5 to 30 µM
BaF3 cells
  IC50: 5 to 30 µM
Hela cells
  IC50: 5 to 30 µM
JAK1
  IC50: > 500 nM

## O=C(Nc1nc2cccc(-c3ccc(COCCc4cn[nH]c4)s3)n2n1)C1CC1 [EXP-16, N-[5-[5-[2-(1H-pyrazol-4-yl)-ethoxymethyl]-2-thienyl]-[1,2,4]triazolo[1,5-a]pyridin-2-yl]cylopropanecarboxamide]
JAK1
  IC50: > 500 nM

## O=C(NCCc1nccs1)c1cc(-c2cccc3nc(NC(=O)C4CC4)nn23)cs1 [EXP-18]
JAK1
  IC50: 50 to 500 nM
JAK2
  IC50: 50 to 500 nM

## CC[C@@H]1CN(C(=O)NCC(F)(F)F)C[C@@H]1c1cnc2cnc3[nH]ccc3n12 [Upadacitinib, upadacitinib, reference compound]
Rat CIA model [1]; day 0
  Foot volume (ml)/Day: 2.611 ± 0.022 mL
Rat CIA model [1]; day 8
  Foot volume (ml)/Day: 2.599 ± 0.020 mL
Rat CIA model [1]; day 11
  Foot volume (ml)/Day: 2.738 ± 0.110 mL
Rat CIA model [1]; day 14
  Foot volume (ml)/Day: 3.675 ± 0.314 mL
Rat CIA model [1]; day 17
  Foot volume (ml)/Day: 4.126 ± 0.301 mL
Rat CIA model [1]; day 21
  Foot volume (ml)/Day: 4.591 mL
Rat CIA model [1]; day 24
  Foot volume (ml)/Day: 4.403 mL
Rat CIA model [1]; day 28
  Foot volume (ml)/Day: 3.990 mL
Body weight of CIA rats; day 0
  Body weight (g)/Day: 172.3 ± 1.8 g
Body weight of CIA rats; day 8
  Body weight (g)/Day: 170.4 ± 2.1 g
Body weight of CIA rats; day 11
  Body weight (g)/Day: 169.4 ± 2.8 g
Body weight of CIA rats; day 14
  Body weight (g)/Day: 170 ± 2.2 g
Body weight of CIA rats; day 17
  Body weight (g)/Day: 170.8 ± 3.3 g
Body weight of CIA rats; day 21
  Body weight (g)/Day: 168.6 ± 2.9 g
Body weight of CIA rats; day 24
  Body weight (g)/Day: 165.9 ± 2.9 g
Body weight of CIA rats; day 28
  Body weight (g)/Day: 170.5 ± 3.1 g
Rat CIA model [2]; day 0
  Arthritis index/Day: 0 ± 0
Rat CIA model [2]; day 8
  Arthritis index/Day: 0 ± 0
Rat CIA model [2]; day 11
  Arthritis index/Day: 0.63 ± 0.38
Rat CIA model [2]; day 14
  Arthritis index/Day: 3.50 ± 0.73
Rat CIA model [2]; day 17
  Arthritis index/Day: 5.50 ± 1.00
Rat CIA model [2]; day 21
  Arthritis index/Day: 9.00 ± 1.07
Rat CIA model [2]; day 24
  Arthritis index/Day: 9.38 ± 0.71

## O=C(Nc1nc2cccc(-c3nnc(CN4CCS(=O)(=O)CC4)s3)n2n1)C1CC1 [EXP-14, N-[5-[5-[(1,1-dioxo-1,4-thiazin-4-)methyl]-1,3,4-thiadiazol-2-]-[1,2,4]triazolo[1,5-a]pyridine-2-]cyclopropylcarboxamide]
JAK1
  IC50: > 500 nM
JAK2
  IC50: > 500 nM

## O=C(Nc1nc2cccc(-c3ccc(CN4CCS(=O)(=O)CC4)s3)n2n1)C1(F)CC1 [EXP-10]
JAK1
  IC50: > 500 nM

## O=C(Nc1nc2cccc(-c3ccc(CN4CCC(C(F)(F)F)CC4)s3)n2n1)[C@H]1C[C@@H]1F [EXP-11]
JAK1
  IC50: 50 to 500 nM
JAK2
  IC50: 50 to 500 nM

## Cc1cc(-c2cccc3nc(NC(=O)C4CC4)nn23)sc1CN1CCS(=O)(=O)CC1 [EXP-2]
THP1 cells
  IC50: < 5 µM
BaF3 cells
  IC50: < 5 µM
Hela cells
  IC50: < 5 µM
JAK1
  IC50: 50 to 500 nM
JAK2
  IC50: 50 to 500 nM

## CC1(C(=O)Nc2nc3cccc(-c4ccc(CN5CCS(=O)(=O)CC5)s4)n3n2)CC1(F)F (stereo not drawn) [EXP-7]
JAK1
  IC50: > 500 nM
JAK2
  IC50: > 500 nM
